Laboratory results reported in patent US8859615B2, “Compounds, compositions and methods for reducing toxicity and treating or preventing diseases” (priority 2008, dated 2014).
Where two headings read alike, the source gives them in different places.

Columns and labels:
[1] = system: CCRF-CEM/VBL100 vinblastine-resistant cells; assay: In vitro cytotoxicity against vinblastine-resistant CCRF-CEM subline; assay type: cell-based, human; conditions: for IC50: Homo sapiens, CCRF-CEM
Description: (§1) The cytotoxicity IC50 of each compound was measured with the XTT assay using the 2,3-bis(2-methoxy-4-nitro-5-sulfophenyl)-5-[(phenylamino)carbonyl]-2H-tetrazolium hydroxide (XTT) microculture method as described in Scudiero et al., Cancer Res., 48:4827 (1988), the contents of which are hereby incorporated by reference in their entirety. The CCK-8 assay is a cell counting kit-8 (CCK-8) tetrazolium assay using a 96-well microplate (Dojindo Molecular Technologies, Inc., Rockville, Md.) (M. Ishiyama et al., Biol. Pharm. Bull. 19: 1518, 1996). Absorbance was measured by Powerwave a XS microplate spectrophotometer. This method described is considered a general method in vitro cytotoxicity studies.
(§2) The data in Tables 2X, 3A-E, 4, 5, and 6 were obtained using the cell counting kit-8 (CCK-8) tetrazolium assay in a 96-well microplate. Five to seven concentrations of each compound in triplicate were used, and the IC50 values were determined by CompuSyn software automation (Chou T C. and Martin N. ComboSyn, Inc., 2006) based on the median-effect equation and plot (Chou T C. J. Theor. Biol. 59:235-276, 1976; Chou T C. Pharmacol. Rev. 58: 621-681, 2006). […] The r value defines the correlation coefficient of the median-effect plot which signifies the conformity to the mass-action law principle (Chou T C. J. Theor. Biol. 59:235-276, 1976; Chou T C. Pharmacol. Rev. 58:621-681, 2006). These parameters were determined by CompuSyn simulation (available at http://www.combosyn.com).
(§3) CCRF-CEM human T-cell acute lymphoblastic leukemia cells and the corresponding vinblastine-resistant cells (CCRF-CEM/VBL100) were cultured at an initial density of 5×10^4 cells per milliliter. The cultured cells were maintained in a 5% CO2-humidified atmosphere at 37° C. in RPMI medium 1640 (GIBCO/BRL) containing penicillin (100 units/mL), streptomycin (100 μg/mL, GIBCO/BRL), and 10% heat-inactivated fetal bovine serum. The cytotoxicity of each Compound of the invention was measured using the 2,3-bis(2-methoxy-4-nitro-5-sulfophenyl)-5-[(phenylamino)carbonyl]-2H-tetrazolium hydroxide (XTT) microculture method as described in Scudiero et al., Cancer Res., 48:4827 (1988), the contents of which are hereby incorporated by reference in their entirety.
(§4) Absorbance was measured by Powerwave XS microplate spectrophotometer.

[2] = system: human lymphoblastic leukemic T-cell growth; assay: Cytotoxic activity relative to stability during storage at −20° C. in DMSO (Table 10); assay type: cell-based; conditions: Homo sapiens, CCRF-CEM, 72 h, Table 10, XTT, 72 hr
Text: Without wishing to be bound by theory, the oxidized versions may be active metabolites. This theory provides an explanation of the delayed onset of therapeutic effects seen in the figures herein. The oxidized compounds may be active agents that are formed slowly upon metabolic oxidation. […] The active metabolites may explain the biphasic pharmacological properties of panaxytriol or Compound D that have been observed (FIGS. 9B, C, D; FIGS. 11D, E, F, and FIGS. 12D, E). […] Induction of the phase 2 enzymes may slow oxidation of the compounds (Ng et al., Tetrahedron Letters. 49: 7178-7179 (2008)).

[3] = system: CCRF-CEM human T-cell acute lymphoblastic leukemia cells; assay: In vitro cytotoxicity against CCRF-CEM (XTT / CCK-8 tetrazolium assay, 72 hr); conditions: for IC50: Homo sapiens, CCRF-CEM
Description: as §1, §2, §3, §4

[4] = system: CCRF-CEM subline resistant to TAXOL; assay: In vitro cytotoxicity against TAXOL-resistant CCRF-CEM subline; assay type: cell-based, human; conditions: for IC50: Homo sapiens, CCRF-CEM
Description: as §2, §4

[5] = system: human neuroblastoma IMR-32 cells; assay: 50% toxicity in the IMR-32 induction assay (Table 12); assay type: cell-based
Description: (§5) Compounds were screened for AKR1C enzyme activity as set forth in Halim, M.; Yee, D. J. and Sames, D. J. Am. Chem. Soc. 2008, […], 14123-14128. […] Specifically, coumberone metabolism studies in IMR-32 can be done as follows: Early-passage (<P25) IMR-32 cells were seeded at a density of 4×10^4 cells/well in 96-well dish. They were then treated with the various inducers or DMSO vehicle (0.5% v/v) control. The concentration of each inducer was varied from 50 nM to 60 μM and the cells were incubated with these for either 24 or 48 hours. 72 hours after seeding, the media was removed and 100 μL of experimental media (DMEM without phenol red supplemented with 100 units/ml penicillin, 100 μg/ml streptomycin, 4 mM L-glutamine and 1% charcoal-dextran treated FBS) was added and incubated for 2 hrs. 100 μl more of the experimental media containing Coumberone (final concentration of 5 μM) was then added. The fluorescence of the cell culture medium was recorded on a plate reader MicroMax 384 connected to a Jobin Yvon Fluorolog by detecting fluorescence at 510 nm upon excitation at 385 nm. The reading was taken every 6 hours for 72 hours. Metabolic conversion rate was obtained by measuring the change in fluorescence per hour for the first 36 hours. The relative increase in metabolic rate was calculated by dividing the metabolic conversion rates of cells incubated with the activator compounds with those incubated with DMSO vehicle. […] Fold-induction is the increase metabolic activity of the reporter. […] “None” indicates no observed induction.

[6] = system: AKR1C2 and AKR1C3 in human neuroblastoma IMR-32 cells; assay: Induction of AKR1C enzymes, coumberone metabolism (Tables 12, 13); conditions: for Fold induction of AKR1C2 and AKR1C3 in IMR-32 cells (result in words): inducer varied from 50 nM to 60 μM
Description: as §5
The IMR-32 induction assay was run as follows. Early-passage (<P25) IMR-32 cells were seeded at a density of 4×10^4 cells/well in 96-well dish. They were then treated with the various inducers or DMSO vehicle (0.5% v/v) control. The concentration of each inducer was varied from 50 nM to 60 μM and the cells were incubated with these for either 24 or 48 hours. 72 hours after seeding, the media was removed and 100 μL of experimental media (DMEM without phenol red supplemented with 100 units/ml penicillin, 100 μg/ml streptomycin, 4 mM L-glutamine and 1% charcoal-dextran treated FBS) was added and incubated for 2 hrs. 100 μl more of the experimental media containing Coumberone (final concentration of 5 μM) was then added. The fluorescence of the cell culture medium was recorded on a plate reader MicroMax 384 connected to a Jobin Yvon Fluorolog by detecting fluorescence at 510 nm upon excitation at 385 nm. The reading was taken every 6 hours for 72 hours. Metabolic conversion rate was obtained by measuring the change in fluorescence per hour for the first 36 hours. The relative increase in metabolic rate was calculated by dividing the metabolic conversion rates of cells incubated with the activator compounds with those incubated with DMSO vehicle. […] J. Am. Chem. Soc. 2008, 130, 14123-[…].

[7] = 72 h, Table 3D, CCK-8, 72-hr incubation, read-out: IC50 CCRF-CEM/Vinblastine
[8] = 72 h, read-out: IC50 CCRF-CEM, Table 3D, CCK-8, 72-hr incubation
[9] = read-out: IC50 (in μM), cytotoxic potency against cancer cell line growth in vitro, Table 3C, cell line not given
[10] = Table 3D, CCK-8, 72-hr incubation, read-out: IC50 CCRF-CEM/TAXOL
[11] = Table 3E, read-out: IC50 CCRF-CEM/Vinblastine
[12] = read-out: IC50 CCRF-CEM, Table 3E
[13] = Table 3E, read-out: IC50 CCRF-CEM/TAXOL

C=CC(=O)C#CC#CC[C@H]1OC(C)(C)O[C@@H]1CCCCCCC [Compound (C)]
fold resistance in brackets (IC50 CCRF-CEM/VBL vs CCRF-CEM) ([1]; Table 3): 1.19 x
IC50 ([2]; Aug. 22, 2003 (Stored), same solution kept at −20° C. in DMSO, read-out: IC50 in μM CCRF-CEM): 2.68 µM
IC50 ([2]; Aug. 22, 2003 (Stored), same solution kept at −20° C. in DMSO, read-out: IC50 in μM CCRF-CEM/VBL): 3.9 µM
IC50 ([2]; Jul. 25, 2003 (Fresh), read-out: IC50 in μM CCRF-CEM): 0.404 µM
IC50 ([2]; Jul. 25, 2003 (Fresh), read-out: IC50 in μM CCRF-CEM/VBL): 0.7 µM

C=C[C@H](C#CC#CC[C@H]1OC(C)(C)O[C@@H]1CCCCCCC)OC(=O)/C=C/c1ccccc1 [Compound (E)]
IC50 [1, 7]: 106 µM
fold of cross-resistance (CCRF-CEM/Vinblastine vs parent cell line) ([1]; Table 3D, given as x or -fold): 0.17 fold
anti-cancer activity in the in vitro cytotoxicity assay [3]: active against cancer
IC50 [3, 8]: 642 µM
IC50 [3, 9]: 642 µM
IC50 [4, 10]: 156 µM
fold of cross-resistance (CCRF-CEM/TAXOL vs parent cell line) ([4]; Table 3D, given as x or -fold): 0.24 fold

C=C[C@H](C#CC#CC[C@H]1OC(C)(C)O[C@@H]1CCCCCCC)OC(C)=O [Compound (F)]
IC50 [1, 7]: 8.56 µM
IC50 [3, 8]: 3.88 ± 0.85 µM
IC50 [3, 9]: 3.88 µM
IC50 [4, 10]: 7.58 µM

C=CC(C)(O)C#CC#CC[C@H]1OC(C)(C)O[C@@H]1CCCCCCC (stereo partly shown) [Compound (G)]
IC50 [1, 7]: 7.3 µM
IC50 [3, 8]: 3.77 ± 0.48 µM
IC50 [3, 9]: 3.77 µM
IC50 [4, 10]: 6.16 µM

C=C[C@H](C#CC#CC[C@H]1OC(C)(C)O[C@@H]1CCCCCCC)OC [Compound (H)]
IC50 [1, 7]: 26.6 µM
IC50 [3, 8]: 21.6 µM
IC50 [3, 9]: 21.6 µM
IC50 [4, 10]: 15.1 µM

CCCCCCC[C@H]1OC(C)(C)O[C@@H]1CC#CC#C/C=C/CO [Compound (L)]
IC50 [1, 7]: 2.76 µM
IC50 [3, 8]: 1.92 ± 0.16 µM
IC50 [3, 9]: 1.92 µM
IC50 [4, 10]: 2.91 µM

CCCCCCC[C@H]1OC(C)(C)O[C@@H]1Cc1ccc(C=O)cc1 [Compound (N), 4-(((4R,5R)-5-heptyl-2,2-dimethyl-1,3-dioxolan-4-yl)methyl)benzaldehyde]
IC50 [1, 11]: 13.6 µM
IC50 [3, 12]: 12.6 µM
IC50 [4, 13]: 19.4 µM

C=CC(O)c1ccc(C[C@H]2OC(C)(C)O[C@@H]2CCCCCCC)cc1 (stereo partly drawn) [Compound (O), 1-(4-(((4R,5R)-5-heptyl-2,2-dimethyl-1,3-dioxolan-4-yl)methyl)phenyl)prop-2-en-1-ol]
IC50 [1, 11]: 6.52 µM
IC50 [3, 12]: 5.25 µM
IC50 [4, 13]: 10.3 µM

CCCCCCC[C@H]1OC(C)(C)O[C@@H]1Cc1ccc(C(O)CC)cc1 (stereo partly drawn) [Compound (P), 1-(4-(((4R,5R)-5-heptyl-2,2-dimethyl-1,3-dioxolan-4-yl)methyl)phenyl)propan-1-ol]
IC50 [1, 11]: 5.14 µM
IC50 [3, 12]: 4.18 µM
IC50 [4, 13]: 11.9 µM

CCCCCCC[C@@H](O)[C@H](O)CC#CC#C[C@H](O)c1ccccc1 [Example 24, (1R,7R,8R)-1-phenyl-2,4-pentadecadiyne-1,7,8-triol]
IC50 ([5]; read-out: 50% toxicity in IMR-32 cells): ~8 µM
EC50 ([6]; Homo sapiens, IMR-32, read-out: EC50 of induction of AKR1C2 and AKR1C3 in IMR-32 cells): ~3.5 µM
fold induction at 5 µM ([6]; Homo sapiens, IMR-32, read-out: Fold induction of AKR1C2 and AKR1C3 in IMR-32 cells): 1.5

CCCCCCC[C@H]1OC(C)(C)O[C@@H]1CC#CC#C/C=C/C(OC)c1ccccc1 (stereo partly shown) [Example 25]
IC50 ([5]; Homo sapiens, IMR-32; read-out: 50% toxicity in IMR-32 cells): ~32.5 µM
Fold induction of AKR1C2 and AKR1C3 in IMR-32 cells (result in words) [6]: None

CC[C@]1(O)C[C@@H]2CN(CCc3c([nH]c4ccccc34)[C@@](C(=O)OC)(c3cc4c(cc3OC)N(C)[C@H]3[C@@](O)(C(=O)OC)[C@H](OC(C)=O)[C@]5(CC)C=CCN6CC[C@]43[C@@H]65)C2)C1 [Vinblastine]
IC50 ([1]; 72 h, Table 3A-2, CCK-8, 72-hr exposure, read-out: CCRF-CEM/VBL (IC50 in μM)): 0.669 µM
Fold of resistance (IC50 ratio CCRF-CEM/VBL vs CCRF-CEM) ([1]; Table 3A-2): 608 fold
IC50 ([3]; 72 h, read-out: CCRF-CEM (IC50 in μM), Table 3A-2, CCK-8, 72-hr exposure): 0.0011 µM
IC50 ([4]; Table 3A-2, CCK-8, 72-hr exposure, read-out: CCRF-CEM/TAXOL (IC50 in μM)): 0.282 µM
Fold of resistance (IC50 ratio CCRF-CEM/TAXOL vs CCRF-CEM) ([4]; Table 3A-2): 256 fold

CCCCCCC[C@@H](O)[C@H](O)CC#CC#CC[C@H](O)[C@@H](O)CCCCCCC [analog 2]
IC50 ([5]; Homo sapiens, IMR-32, read-out: 50% toxicity in IMR-32 cells): ~25 µM
Fold induction of AKR1C2 and AKR1C3 in IMR-32 cells (result in words) [6]: None
